Paper PMC9234962, “Optimization of Peptide Linker-Based Fluorescent Ligands for the Histamine H1 Receptor” (Journal of Medicinal Chemistry, 2022)
Where two headings read alike, the source gives them in different places. Square brackets hold non-standard residues; d marks the D form. Peptide text beside a SMILES is read from it. * marks the point of attachment. X1 = O=C(COc1ccc(/C=C/C2=[N+]3C(=Cc4ccc(-c5cccs5)n4[B-]3(F)F)C=C2)cc1)*; Propanoyl(3-Pip(4-O-2-BnPh)) = O=C(CCN1CCC(Oc2ccccc2Cc2ccccc2)CC1)*; βAla = NCCC(=O)O

Experiments:
H1R = conditions: cited from earlier work
Nluc-H3R = target: T1, Nluc-H3R (Homo sapiens, UniProt Q9Y5N1); test: NanoBRET saturation binding assay on Nluc-H3R HEK293T cell homogenates; conditions: for binding at H3R in saturation assay (in words): concentrations of up to 1 μM
T1 construct: expressed in transfected cells; host or cells: HEK293T, transient transfection; sonicated cell homogenates
Procedure: (§1) HEK293T cells were transiently transfected with 2.5 μg of cDNA encoding Nluc-H3R or Nluc-H4R and 2.5 μg of empty pcDEF3 vector using the polyethylenimine method as described previously in Mocking et al.[23] Two days after transfection, cells were collected in phosphate-buffered saline (PBS) and centrifuged at 1900g for 10 min and the cell pellet was stored at −20°C until the day of experiment. The pellet was resuspended in HBSS buffer, and cells were disrupted using a Branson sonifier 250 (Boom bv., Meppel, the Netherlands) prior to use in a NanoBRET binding assay.
For all NanoBRET binding experiments, 10 μM NanoGlo substrate (Promega) was added to each well after the incubation period and fluorescence and luminescence emissions were measured after 5 min.
(§2) Total and non-specific saturation binding curves from NanoBRET saturation binding assay were fitted simultaneously using eq 1: [drawing 4] 1 where Bmax is the maximal specific binding, [B] is the concentration of fluorescent ligand in nM, KD is the equilibrium dissociation constant in nM, M is the slope of the non-specific component, and C is the intercept with the Y axis.

Nluc-H4R [1] = target: T2, Nluc-H4R (Homo sapiens, UniProt Q9H3N8); test: NanoBRET saturation binding assay on Nluc-H4R HEK293T cell homogenates; conditions: for Kd / Nluc-H4R pKD: cell homogenates, highest concentration 1 μM for 31a, 31k; for Nluc-H4R pKD: mean ± SEM, three experiments; for binding at H4R in saturation assay (in words): concentrations of up to 1 μM
T2 construct: expressed in transfected cells; host or cells: HEK293T, transient transfection; sonicated cell homogenates
Procedure: as §1
For cell membrane NanoBRET saturation binding experiments, cell homogenates expressing the Nluc-H3R or Nluc-H4R were incubated with the required concentrations of fluorescent ligand in the absence and presence of 10 μM clobenpropit in HBSS for 2 h at 25 °C. For all NanoBRET binding experiments, 10 μM NanoGlo substrate (Promega) was added to each well after the incubation period and fluorescence and luminescence emissions were measured after 5 min.
as §2

Nluc-H4R [2] = target: T2, Nluc-H4R; parameters: method as in PMID 30249614; conditions: literature value, cited from earlier work
human H1R = target: T3, human H1R (Homo sapiens, UniProt P35367); test: Ca2+ mobilization assay on human H1R-expressing CHO cells; assay type: cell-based; conditions: Gaddum equation, shift in histamine EC25 with 1 μM antagonist
T3 construct: expressed in transfected cells; host or cells: CHO cells
Procedure: CHO cells expressing H1R were grown to confluence in black-walled, clear-bottom 96-well plates. On the day of the experiment, media were replaced with 100 μL of HBSS containing […], 2.3 μM Fluo-4AM (Invitrogen), 0.023% Pluronic F-127, 0.5 mM Brilliant Black BN, and 1 μM required fluorescent ligand and the plates incubated for 1 h at 37 °C in the dark. The plates were then placed in the multi-well fluorometric imaging plate reader FlexStation3 (Molecular Devices, Sunnyvale, CA) and HBSS only or HBSS containing the required concentration of histamine was added after 15 s. Fluo-4 fluorescence was measured at 520 nm (excitation at 485 nm) every 1.52 s for 200 s. For each well, the peak maximum–minimum–maximum change in fluorescence value was taken and plotted against concentration of histamine to give a dose–response curve.
Estimated affinity values (pKB) were calculated from the shift in agonist concentration–response curves in the presence of the fluorescent antagonists using the Gaddum equation (7): [drawing 10] 7 where DR (dose ratio) is the ratio of the agonist concentration required to stimulate an identical response in the presence and absence of antagonist, [B]. DR was determined from the EC25 value as there was a decrease in observed maximal efficacy of histamine in the presence of all 10 fluorescent antagonists.

Nluc-H1R [3] = target: T4, Nluc-H1R (Homo sapiens, UniProt P35367); test: NanoBRET saturation binding assay on Nluc-H1R expressing HEK293T cells; parameters: expressed in transfected cells; conditions: saturation binding curves, whole HEK293T cells
Description: as §2

Nluc-H1R [4] = target: T4, Nluc-H1R; test: NanoBRET association kinetics assay on Nluc-H1R HEK293T cells; assay type: binding; parameters: expressed in transfected cells
Procedure: For whole cell NanoBRET association kinetic experiments, 10 μM furimazine was added to each well and incubated at room temperature in the dark for 15 min to allow for stabilization of the luminescence signal. The required concentration of fluorescent ligand in the presence or absence of 10 μM of doxepin was added simultaneously, and the plates were read immediately with each well being read once per min for 90 min.
For the NanoBRET association kinetic experiments, the BRET ratio was determined for each concentration of fluorescent ligand at each time point in the presence or absence of 10 μM of doxepin. Specific binding was calculated by subtracting non-specific binding from total binding.

T4 sequence (P35367 whole entry): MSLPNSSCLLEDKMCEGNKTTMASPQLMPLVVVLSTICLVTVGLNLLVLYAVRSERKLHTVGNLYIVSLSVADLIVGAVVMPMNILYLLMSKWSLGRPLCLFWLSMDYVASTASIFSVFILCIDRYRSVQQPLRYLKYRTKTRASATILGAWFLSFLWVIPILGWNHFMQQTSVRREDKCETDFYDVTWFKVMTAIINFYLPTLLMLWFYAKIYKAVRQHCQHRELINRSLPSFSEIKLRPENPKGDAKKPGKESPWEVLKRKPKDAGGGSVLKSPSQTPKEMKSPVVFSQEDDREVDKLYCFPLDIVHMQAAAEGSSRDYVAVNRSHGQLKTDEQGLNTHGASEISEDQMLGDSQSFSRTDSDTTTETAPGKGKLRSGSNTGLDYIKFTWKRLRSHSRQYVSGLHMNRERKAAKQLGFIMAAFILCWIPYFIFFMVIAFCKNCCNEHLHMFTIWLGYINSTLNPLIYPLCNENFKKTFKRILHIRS
T2 sequence (Q9H3N8 whole entry): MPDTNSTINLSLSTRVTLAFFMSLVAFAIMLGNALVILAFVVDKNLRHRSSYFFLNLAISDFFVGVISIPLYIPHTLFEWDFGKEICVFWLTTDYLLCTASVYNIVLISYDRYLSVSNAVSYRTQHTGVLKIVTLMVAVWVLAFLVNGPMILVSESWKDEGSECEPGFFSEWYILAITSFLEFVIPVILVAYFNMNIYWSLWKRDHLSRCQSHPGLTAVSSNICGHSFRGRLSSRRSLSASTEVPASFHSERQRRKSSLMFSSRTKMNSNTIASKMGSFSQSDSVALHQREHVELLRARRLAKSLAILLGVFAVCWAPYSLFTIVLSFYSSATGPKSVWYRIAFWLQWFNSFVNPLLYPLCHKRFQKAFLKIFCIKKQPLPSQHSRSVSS
T1 sequence (Q9Y5N1 whole entry): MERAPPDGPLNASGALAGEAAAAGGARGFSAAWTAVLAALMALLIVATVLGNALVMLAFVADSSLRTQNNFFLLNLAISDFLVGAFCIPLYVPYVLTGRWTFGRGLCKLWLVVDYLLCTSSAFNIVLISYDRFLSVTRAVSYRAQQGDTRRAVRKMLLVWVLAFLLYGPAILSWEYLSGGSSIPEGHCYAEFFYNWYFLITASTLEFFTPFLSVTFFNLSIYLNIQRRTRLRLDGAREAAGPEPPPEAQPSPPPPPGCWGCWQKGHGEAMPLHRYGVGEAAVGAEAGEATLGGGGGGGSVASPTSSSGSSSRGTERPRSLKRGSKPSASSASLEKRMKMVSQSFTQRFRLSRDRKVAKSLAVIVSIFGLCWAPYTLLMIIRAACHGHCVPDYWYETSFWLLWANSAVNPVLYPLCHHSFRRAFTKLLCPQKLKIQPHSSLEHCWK
T3 sequence (P35367 whole entry): as the sequence (P35367 whole entry) above

Structure (SMILES): c1ccc(Cc2ccccc2OC2CCNCC2)cc1 [VUF13816, 4-(2-Benzylphenoxy)piperidine]
- radioligand binding assay pKi (H1R; H1R): 8.20

Structure (SMILES): NC(=NCc1ccc(Cl)cc1)SCCCc1cnc[nH]1 [CA200843, reference compound]
- binding at H3R in saturation assay (in words) (Nluc-H3R): concentration-dependent, saturable and reversible binding
- Kd (Nluc-H4R [1]): 31 nM
- Nluc-H4R pKD (Nluc-H4R [1]): 7.51 ± 0.04
- binding at H4R in saturation assay (in words) (Nluc-H4R [1]): concentration-dependent, saturable and reversible binding
- pKD at Nluc-H4R reported in literature (Nluc-H4R [2]): 7.15
- Kd (Nluc-H4R [2]; read-out: binding affinity at Nluc-H4R reported in literature): 70 nM

Structure (SMILES): C[C@H](NC(=O)[C@H](C)NC(=O)[C@H](Cc1ccccc1)NC(=O)CCN1CCC(Oc2ccccc2Cc2ccccc2)CC1)C(=O)NCCC(=O)N[C@@H](CCCCNC(=O)COc1ccc(/C=C/C2=[N+]3C(=Cc4ccc(-c5cccs5)n4[B-]3(F)F)C=C2)cc1)C(N)=O [Compound 31k, (S)-2-((6S,9S,12S)-12-Benzyl-16-(4-(2-benzylphenoxy)piperidin-1-yl)-6,9-dimethyl-5,8,11,14-tetraoxo-4,7,10,13-tetraazahexadecanamido)-6-(2-(4-((E)-2-(5,5-difluoro-7-(thiophen-2-yl)-5H-5λ^4,6λ^4-dipyrr-olo[1,2-c:2’,1’-f][1,3,2]diazaborinin-3-yl)vinyl)phenoxy)acetamido)hexanamide] ({Propanoyl(3-Pip(4-O-2-BnPh))}-FAA[βAla]K(X1)-NH2)
- Kb (human H1R; mean ± SEM, four experiments, read-out: pKB (converted)): 2.57 nM
- Kb (human H1R; read-out: KB (converted)): 3 nM
- Kd (Nluc-H3R; cell homogenates, highest concentration 1 μM for 31a, 31k): < 1000 nM
- Nluc-H3R pKD (Nluc-H3R; cell homogenates, highest concentration 1 μM for 31a, 31k, mean ± SEM, three experiments): < 6
- binding at H3R in saturation assay (in words) (Nluc-H3R): little to no binding
- selectivity for H1R over H3R and H4R (Nluc-H3R; from NanoBRET saturation binding at H1R, H3R, H4R): approximately 100 fold
- Kd (Nluc-H4R [1]): < 1000 nM
- Nluc-H4R pKD (Nluc-H4R [1]): < 6
- binding at H4R in saturation assay (in words) (Nluc-H4R [1]): little to no binding
- Kd (Nluc-H1R [3]): 12 nM
- pKD (Nluc-H1R [3]; non-specific with 10 μM mepyramine, mean ± SEM): 7.92 ± 0.08
- Kd (Nluc-H1R [4]; kinetic pKD, mean ± SEM, read-out: pKD determined from kon and koff (converted)): 22.9 nM
- residence time (Nluc-H1R [4]; read-out: mean residence times (MRT)): > 60 min
- kon (Nluc-H1R [4]; real-time NanoBRET, room temperature, 90 min, mean ± SEM): 11400 M⁻¹ s⁻¹
- MRT (mean residence time, 1/koff) (Nluc-H1R [4]; real-time NanoBRET, mean ± SEM): 1.31 ± 0.24 h
- koff (Nluc-H1R [4]; real-time NanoBRET, mean ± SEM): 0.000233 s⁻¹

Structure (SMILES): C[C@@H](NC(=O)CCN1CCC(Oc2ccccc2Cc2ccccc2)CC1)C(=O)N[C@H](C)C(=O)N[C@H](C)C(=O)NCCNC(=O)CCCCCNC(=O)COc1ccc(/C=C/C2=[N+]3C(=Cc4ccc(-c5cccs5)n4[B-]3(F)F)C=C2)cc1 [Compound 1]
- Radioligand binding assay (hH1R) pKi (H1R): 8.4 ± 0.1
